{"source": "ChEMBL document CHEMBL5113519", "about": "“Discovery of Novel Imidazo[4,5-c]quinoline Derivatives to Treat Inflammatory Bowel Disease (IBD) by Inhibiting Multiple Proinflammatory Signaling Pathways and Restoring Intestinal Homeostasis” (J Med Chem, 2022)", "key": {"[1]": {"target": "Tyrosine-protein kinase JAK1 (Homo sapiens, UniProt P23458)", "sequence (P23458 whole entry)": "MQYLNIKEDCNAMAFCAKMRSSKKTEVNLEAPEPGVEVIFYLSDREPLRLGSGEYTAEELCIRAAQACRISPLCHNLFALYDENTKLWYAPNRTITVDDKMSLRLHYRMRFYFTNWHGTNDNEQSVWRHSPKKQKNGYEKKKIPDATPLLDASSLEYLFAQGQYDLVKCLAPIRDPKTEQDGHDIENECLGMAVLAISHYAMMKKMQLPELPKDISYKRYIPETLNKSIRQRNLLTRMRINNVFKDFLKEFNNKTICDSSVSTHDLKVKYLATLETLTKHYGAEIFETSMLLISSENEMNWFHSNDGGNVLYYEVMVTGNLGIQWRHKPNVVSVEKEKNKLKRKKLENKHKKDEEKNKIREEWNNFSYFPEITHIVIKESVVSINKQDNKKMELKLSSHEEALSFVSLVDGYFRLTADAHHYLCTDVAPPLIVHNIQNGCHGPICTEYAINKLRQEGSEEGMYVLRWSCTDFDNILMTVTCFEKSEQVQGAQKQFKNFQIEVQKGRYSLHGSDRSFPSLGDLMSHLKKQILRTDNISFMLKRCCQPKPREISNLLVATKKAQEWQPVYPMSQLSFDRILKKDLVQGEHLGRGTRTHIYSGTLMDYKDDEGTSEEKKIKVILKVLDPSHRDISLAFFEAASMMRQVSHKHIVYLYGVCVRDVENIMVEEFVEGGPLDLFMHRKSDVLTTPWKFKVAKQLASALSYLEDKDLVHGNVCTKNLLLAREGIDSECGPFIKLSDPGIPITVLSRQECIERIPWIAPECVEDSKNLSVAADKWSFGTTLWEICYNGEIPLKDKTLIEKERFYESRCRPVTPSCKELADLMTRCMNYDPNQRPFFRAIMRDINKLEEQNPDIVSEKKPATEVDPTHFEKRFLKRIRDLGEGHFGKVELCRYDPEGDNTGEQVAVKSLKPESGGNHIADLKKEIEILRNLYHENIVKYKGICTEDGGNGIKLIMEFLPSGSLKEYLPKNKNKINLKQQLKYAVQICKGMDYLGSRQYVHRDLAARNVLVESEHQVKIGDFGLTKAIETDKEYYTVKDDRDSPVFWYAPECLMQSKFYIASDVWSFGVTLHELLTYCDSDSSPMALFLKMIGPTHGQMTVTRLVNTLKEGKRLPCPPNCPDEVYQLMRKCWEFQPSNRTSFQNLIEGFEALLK", "experiment": "Inhibition of JAK1 (unknown origin) using Kinase/Tyr 6 peptide as substrate incubated for 1 hrs in presence of ATP by fluorescence microplate reader analysis"}, "[2]": {"experiment": "Cytotoxicity against human THP1-Dual cells assessed as inhibition of cell growth measured after 24 hrs by CCK-8 method", "format": "toxicity, cell-based"}, "[3]": {"experiment": "Cytotoxicity against human HUVEC cells assessed as inhibition of cell growth measured after 24 hrs by CCK-8 method", "format": "toxicity, cell-based"}, "THP1-Dual [4]": {"system": "THP1-Dual", "experiment": "Anti-inflammatory activity against LPS-stimulated human THP1-Dual cells assessed as reduction in STAT1 phosphorylation level incubated for 6 hrs by Western blot analysis", "format": "functional, cell-based", "conditions": "dose 0.33-3 µM, DDE = dose-dependent effect"}, "THP1-Dual [5]": {"system": "THP1-Dual", "experiment": "Anti-inflammatory activity against LPS-stimulated human THP1-Dual cells assessed as reduction in STAT3 phosphorylation level incubated for 6 hrs by Western blot analysis", "format": "functional, cell-based", "conditions": "dose 0.33-3 µM, DDE = dose-dependent effect"}, "THP1-Dual [6]": {"system": "THP1-Dual", "experiment": "Anti-inflammatory activity against LPS-stimulated human THP1-Dual cells assessed as reduction in phosphorylation of NF-kappa B level incubated for 6 hrs by Western blot analysis", "format": "functional, cell-based", "conditions": "dose 0.33-3 µM, DDE = dose-dependent effect"}, "THP1-Dual [7]": {"system": "THP1-Dual", "experiment": "Anti-inflammatory activity against LPS-stimulated human THP1-Dual cells assessed as inhibition of IL-8 secretion incubated for 6 hrs followed by LPS stimulation by Western blot analysis", "format": "functional, cell-based", "conditions": "dose 0.33-3 µM, DDE = dose-dependent effect"}, "THP1-Dual [8]": {"system": "THP1-Dual", "experiment": "Anti-inflammatory activity against LPS-stimulated human THP1-Dual cells assessed as inhibition of IL-1 beta secretion incubated for 6 hrs followed by LPS stimulation by Western blot analysis", "format": "functional, cell-based", "conditions": "dose 0.33-3 µM, DDE = dose-dependent effect"}, "Mus musculus [9]": {"system": "Mus musculus", "experiment": "Antiinflammatory activity in DSS-induced acute colitis C57BL/6 mouse model assessed as reduction stool softness by measuring DAI score at 1 to 3 mg/kg, po administered daily and measured upto 11 days", "format": "functional, organism-based", "conditions": "dose 1-3 mg/kg, time <= 11.0 day"}, "Mus musculus [10]": {"system": "Mus musculus", "experiment": "Antiinflammatory activity in DSS-induced acute colitis C57BL/6 mouse model assessed as reduction in bloody stool by measuring DAI score at 1 to 3 mg/kg, po administered daily and measured upto 11 days", "format": "functional, organism-based", "conditions": "dose 1-3 mg/kg, time <= 11.0 day"}, "Mus musculus [11]": {"system": "Mus musculus", "experiment": "Antiinflammatory activity in DSS-induced acute colitis C57BL/6 mouse model assessed as reduction in weight loss by measuring DAI score at 1 to 3 mg/kg, po administered daily and measured upto 11 days", "format": "functional, organism-based", "conditions": "dose 1-3 mg/kg, time <= 11.0 day"}, "Mus musculus [12]": {"system": "Mus musculus", "experiment": "Antiinflammatory activity in DSS-induced acute colitis C57BL/6 mouse model assessed as reduction in inflammatory cell infiltration in colon by measuring histopathological score at 1 to 3 mg/kg, po by H and E staining based analysis", "format": "functional, organism-based", "conditions": "dose 1-3 mg/kg"}, "Mus musculus [13]": {"system": "Mus musculus", "experiment": "Antiinflammatory activity in DSS-induced acute colitis C57BL/6 mouse model assessed as reduction in colon villi integrity in colon by measuring histopathological score at 1 to 3 mg/kg, po by H and E staining based analysis", "format": "functional, organism-based", "conditions": "dose 1-3 mg/kg"}, "Mus musculus [14]": {"system": "Mus musculus", "experiment": "Antiinflammatory activity in DSS-induced acute colitis C57BL/6 mouse model assessed as reduction in number of goblet cells in colon by measuring histopathological score at 1 to 3 mg/kg, po by H and E staining based analysis", "format": "functional, organism-based", "conditions": "dose 1-3 mg/kg"}, "Mus musculus [15]": {"system": "Mus musculus", "experiment": "Anti-inflammatory activity in TNBS induced IBD BALB/c mouse model assessed as increase in survival probability at 5 mg/kg via oral gavage administered daily for 12 days", "format": "functional, organism-based", "conditions": "time 12.0 day"}, "Mus musculus [16]": {"system": "Mus musculus", "experiment": "Anti-inflammatory activity in TNBS induced IBD BALB/c mouse model assessed as reduction in weight by measuring disease activity index score at 1 to 5 mg/kg via oral gavage administered daily for 12 days measured daily", "format": "functional, organism-based", "conditions": "dose 1-5 mg/kg, time 12.0 day"}, "Mus musculus [17]": {"system": "Mus musculus", "experiment": "Anti-inflammatory activity in TNBS induced IBD BALB/c mouse model assessed as reduction in stool softness by measuring disease activity index score at 1 to 5 mg/kg via oral gavage administered daily for 12 days", "format": "functional, organism-based", "conditions": "dose 1-5 mg/kg, time 12.0 day"}, "[18]": {"experiment": "Toxicity in mouse assessed as change in body weight at 50 mg/kg measured upto 2 weeks", "format": "organism-based", "conditions": "in vivo, 336 h"}, "[19]": {"experiment": "Toxicity in mouse assessed as abnormality in gastrointestinal tract at 20 to 50 mg/kg, IG measured upto 2 weeks", "format": "organism-based", "conditions": "in vivo, po, 336 h, dose 20-50 mg/kg"}, "[20]": {"experiment": "Toxicity in mouse assessed as abnormal change in heart at 20 to 50 mg/kg, IG measured upto 2 weeks", "format": "organism-based", "conditions": "in vivo, po, 336 h, dose 20-50 mg/kg"}, "[21]": {"experiment": "Toxicity in mouse assessed as abnormal change in liver at 20 to 50 mg/kg, IG measured upto 2 weeks", "format": "organism-based", "conditions": "in vivo, po, 336 h, dose 20-50 mg/kg"}, "[22]": {"experiment": "Toxicity in mouse assessed as abnormal change in spleen at 20 to 50 mg/kg, IG measured upto 2 weeks", "format": "organism-based", "conditions": "in vivo, po, 336 h, dose 20-50 mg/kg"}, "[23]": {"experiment": "Toxicity in mouse assessed as abnormal change in lung at 20 to 50 mg/kg, IG measured upto 2 weeks", "format": "organism-based", "conditions": "in vivo, po, 336 h, dose 20-50 mg/kg"}, "[24]": {"experiment": "Toxicity in mouse assessed as abnormal change in kidney at 50 mg/kg, IG measured upto 2 weeks", "format": "organism-based", "conditions": "in vivo, po, 336 h"}, "[25]": {"experiment": "Toxicity in mouse assessed as effect on red blood cell number at 20 to 50 mg/kg, IG measured upto 2 weeks", "format": "organism-based", "conditions": "in vivo, po, 336 h, dose 20-50 mg/kg"}, "[26]": {"experiment": "Toxicity in mouse assessed as effect on neutrophils number at 20 to 50 mg/kg, IG measured upto 2 weeks", "format": "organism-based", "conditions": "in vivo, po, 336 h, dose 20-50 mg/kg"}, "Mus musculus [27]": {"system": "Mus musculus", "experiment": "Anti-inflammatory bowel disease activity in DSS-induced acute enteritis mouse model assessed as decrese in bacteroides abundance at 3 mg/kg", "format": "functional, organism-based"}, "Mus musculus [28]": {"system": "Mus musculus", "experiment": "Anti-inflammatory bowel disease activity in DSS-induced acute enteritis mouse model assessed as decrese in lactobacillus abundance at 3 mg/kg", "format": "functional, organism-based"}, "Mus musculus [29]": {"system": "Mus musculus", "experiment": "Anti-inflammatory bowl disease activity in DSS-induced acute enteritis mouse model assessed as increase in norank_f_Muribaculaceae abundance at 3 mg/kg", "format": "functional, organism-based"}, "THP1-Dual [30]": {"system": "THP1-Dual", "experiment": "Inhibition of LPS induced IL-1 beta expression in human THP1-Dual cells at 1 uM incubated for 6 hrs", "format": "functional, cell-based"}, "THP1-Dual [31]": {"system": "THP1-Dual", "experiment": "Inhibition of LPS induced IL-23A expression in human THP1-Dual cells at 1 uM incubated for 6 hrs", "format": "functional, cell-based"}, "THP1-Dual [32]": {"system": "THP1-Dual", "experiment": "Downregulation of IFN-gamma in human THP1-Dual cells at 1 uM incubated for 6 hrs", "format": "functional, cell-based"}, "THP1-Dual [33]": {"system": "THP1-Dual", "experiment": "Downregulation of IFN-alpha in human THP1-Dual cells at 1 uM incubated for 6 hrs", "format": "functional, cell-based"}, "THP1-Dual [34]": {"system": "THP1-Dual", "experiment": "Downregulation of JAK/STAT in human THP1-Dual cells at 1 uM incubated for 6 hrs", "format": "functional, cell-based"}, "THP1-Dual [35]": {"system": "THP1-Dual", "experiment": "Downregulation of unfolded protein response in human THP1-Dual cells at 1 uM incubated for 6 hrs", "format": "functional, cell-based"}, "[36]": {"target": "Tyrosine-protein kinase JAK2 (Homo sapiens, UniProt O60674)", "sequence (O60674 whole entry)": "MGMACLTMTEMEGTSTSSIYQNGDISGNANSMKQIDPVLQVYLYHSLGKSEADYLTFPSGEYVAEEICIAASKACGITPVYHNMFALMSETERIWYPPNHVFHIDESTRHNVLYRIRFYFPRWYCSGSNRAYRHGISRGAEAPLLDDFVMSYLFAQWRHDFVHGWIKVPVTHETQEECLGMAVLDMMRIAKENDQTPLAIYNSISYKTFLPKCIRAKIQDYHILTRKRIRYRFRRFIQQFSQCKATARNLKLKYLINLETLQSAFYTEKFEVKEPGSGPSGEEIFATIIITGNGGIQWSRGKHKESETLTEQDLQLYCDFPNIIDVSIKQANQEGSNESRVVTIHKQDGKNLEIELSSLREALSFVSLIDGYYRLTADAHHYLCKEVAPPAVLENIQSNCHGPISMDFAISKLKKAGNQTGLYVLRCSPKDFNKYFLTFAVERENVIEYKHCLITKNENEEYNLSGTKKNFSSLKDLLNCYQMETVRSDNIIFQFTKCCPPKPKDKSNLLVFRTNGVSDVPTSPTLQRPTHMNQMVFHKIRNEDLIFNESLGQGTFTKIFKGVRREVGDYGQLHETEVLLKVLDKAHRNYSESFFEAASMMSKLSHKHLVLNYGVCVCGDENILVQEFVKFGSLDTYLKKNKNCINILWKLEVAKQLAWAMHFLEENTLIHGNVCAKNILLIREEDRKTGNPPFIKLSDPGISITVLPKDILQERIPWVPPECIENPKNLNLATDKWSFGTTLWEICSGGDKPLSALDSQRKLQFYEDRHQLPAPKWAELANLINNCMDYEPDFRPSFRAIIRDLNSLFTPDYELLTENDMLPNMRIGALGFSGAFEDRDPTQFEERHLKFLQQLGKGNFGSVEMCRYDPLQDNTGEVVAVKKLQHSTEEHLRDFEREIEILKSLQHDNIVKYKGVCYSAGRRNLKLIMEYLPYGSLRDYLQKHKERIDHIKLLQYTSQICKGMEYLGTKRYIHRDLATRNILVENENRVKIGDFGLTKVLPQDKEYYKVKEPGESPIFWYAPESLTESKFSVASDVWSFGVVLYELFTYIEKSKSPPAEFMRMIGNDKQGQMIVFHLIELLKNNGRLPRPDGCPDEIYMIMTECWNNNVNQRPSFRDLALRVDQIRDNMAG", "description": "Inhibition of JAK2 (unknown origin) using Kinase/Tyr 6 peptide as substrate incubated for 1 hrs in presence of ATP by fluorescence microplate reader analysis"}}, "note": "The source made the active and inactive calls. The rule behind the calls is not given here."}
{"smiles": "Cc1nc2cnc3ccc(-c4cc(Cl)c(O)c(Cl)c4)cc3c2n1C1CCN(C)CC1", "values": [{"measurement": "IC50", "setting": "[1]", "result": 8.9, "unit": "nM"}, {"measurement": "IC50 at 24 h", "setting": "[2]", "result": 4300, "unit": "nM"}, {"measurement": "IC50 at 24 h", "setting": "[3]", "result": "> 10000", "unit": "nM"}, {"measurement": "Activity", "setting": "THP1-Dual [4]", "result": "Dde"}, {"measurement": "Activity", "setting": "THP1-Dual [5]", "result": "Dde"}, {"measurement": "Activity", "setting": "THP1-Dual [6]", "result": "Dde"}, {"measurement": "Activity", "setting": "THP1-Dual [7]", "result": "Dde"}, {"measurement": "Activity", "setting": "THP1-Dual [8]", "result": "Dde"}, {"measurement": "Activity", "setting": "Mus musculus [9]", "result": "Active"}, {"measurement": "Activity", "setting": "Mus musculus [10]", "result": "Active"}, {"measurement": "Activity", "setting": "Mus musculus [11]", "result": "Active"}, {"measurement": "Activity", "setting": "Mus musculus [12]", "result": "Active"}, {"measurement": "Activity", "setting": "Mus musculus [13]", "result": "Active"}, {"measurement": "Activity", "setting": "Mus musculus [14]", "result": "Active"}, {"measurement": "Activity", "setting": "Mus musculus [15]", "result": "Active"}, {"measurement": "Activity", "setting": "Mus musculus [16]", "result": "Active"}, {"measurement": "Activity", "setting": "Mus musculus [17]", "result": "Active"}, {"measurement": "Activity", "setting": "[18]", "result": "Non-Toxic"}, {"measurement": "Activity", "setting": "[19]", "result": "Non-Toxic"}, {"measurement": "Activity", "setting": "[20]", "result": "Non-Toxic"}, {"measurement": "Activity", "setting": "[21]", "result": "Non-Toxic"}, {"measurement": "Activity", "setting": "[22]", "result": "Non-Toxic"}, {"measurement": "Activity", "setting": "[23]", "result": "Non-Toxic"}, {"measurement": "Activity", "setting": "[24]", "result": "Non-Toxic"}, {"measurement": "Activity", "setting": "[25]", "result": "Non-Toxic"}, {"measurement": "Activity", "setting": "[26]", "result": "Non-Toxic"}, {"measurement": "Activity", "setting": "Mus musculus [27]", "result": "Active"}, {"measurement": "Activity", "setting": "Mus musculus [28]", "result": "Active"}, {"measurement": "Activity", "setting": "Mus musculus [29]", "result": "Active"}, {"measurement": "inhibition", "setting": "THP1-Dual [30]", "result": "Active"}, {"measurement": "inhibition", "setting": "THP1-Dual [31]", "result": "Active"}, {"measurement": "Activity", "setting": "THP1-Dual [32]", "result": "Active"}, {"measurement": "Activity", "setting": "THP1-Dual [33]", "result": "Active"}, {"measurement": "Activity", "setting": "THP1-Dual [34]", "result": "Active"}, {"measurement": "Activity", "setting": "THP1-Dual [35]", "result": "Active"}, {"measurement": "IC50", "setting": "[36]", "result": 15, "unit": "nM"}]}
